Measurements reported in ChEMBL document CHEMBL5463729, “Data for DCP probe BAY 1753011” (2023).

Assays:
Conditions in all cases: Compound concentration 10.0 uM
[1] = target: T1, cGMP-dependent protein kinase 1 (Homo sapiens) (UniProt Q13976); experiment: Inhibition of PKG1beta(h) at 10.0 µM in the Eurofins Kinase panel
T1 sequence (whole entry): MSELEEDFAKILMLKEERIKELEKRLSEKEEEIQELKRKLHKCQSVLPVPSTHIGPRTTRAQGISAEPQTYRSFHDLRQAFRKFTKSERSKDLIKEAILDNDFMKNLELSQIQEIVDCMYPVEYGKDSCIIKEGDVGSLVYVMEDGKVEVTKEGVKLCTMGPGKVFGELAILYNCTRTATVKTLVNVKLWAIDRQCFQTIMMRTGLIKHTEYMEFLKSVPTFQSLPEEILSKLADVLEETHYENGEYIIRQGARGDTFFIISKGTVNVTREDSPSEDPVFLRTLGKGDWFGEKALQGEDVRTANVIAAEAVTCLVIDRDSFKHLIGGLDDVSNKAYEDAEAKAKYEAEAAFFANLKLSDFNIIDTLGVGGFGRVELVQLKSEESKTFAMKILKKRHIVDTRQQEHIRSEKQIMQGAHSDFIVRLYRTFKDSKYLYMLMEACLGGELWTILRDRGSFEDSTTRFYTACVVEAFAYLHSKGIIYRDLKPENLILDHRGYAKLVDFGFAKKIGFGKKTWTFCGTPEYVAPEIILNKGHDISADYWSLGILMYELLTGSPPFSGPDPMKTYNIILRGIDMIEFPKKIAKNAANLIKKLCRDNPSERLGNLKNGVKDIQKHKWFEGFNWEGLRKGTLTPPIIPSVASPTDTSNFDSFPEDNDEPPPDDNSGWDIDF

[2] = target: D(3) dopamine receptor (Homo sapiens) (UniProt P35462)
[3] = target: Serine/threonine-protein kinase pim-2 (Homo sapiens) (UniProt Q9P1W9); experiment: Inhibition of Pim-2(h) at 10.0 µM in the Eurofins Kinase panel
[4] = target: 5-hydroxytryptamine receptor 2A (Homo sapiens) (UniProt P28223)
[5] = target: D(2) dopamine receptor (Homo sapiens) (UniProt P14416)
[6] = target: Transcription initiation factor TFIID subunit 1-like (Homo sapiens) (UniProt Q8IZX4); experiment: Inhibition of TAF1L(h) at 10.0 µM in the Eurofins Kinase panel
[7] = target: Serine/threonine-protein kinase STK11 (Homo sapiens) (UniProt Q15831); experiment: Inhibition of LKB1(h) at 10.0 µM in the Eurofins Kinase panel
[8] = target: T2, Alpha-2B adrenergic receptor (Homo sapiens) (UniProt P18089)
T2 sequence (whole entry): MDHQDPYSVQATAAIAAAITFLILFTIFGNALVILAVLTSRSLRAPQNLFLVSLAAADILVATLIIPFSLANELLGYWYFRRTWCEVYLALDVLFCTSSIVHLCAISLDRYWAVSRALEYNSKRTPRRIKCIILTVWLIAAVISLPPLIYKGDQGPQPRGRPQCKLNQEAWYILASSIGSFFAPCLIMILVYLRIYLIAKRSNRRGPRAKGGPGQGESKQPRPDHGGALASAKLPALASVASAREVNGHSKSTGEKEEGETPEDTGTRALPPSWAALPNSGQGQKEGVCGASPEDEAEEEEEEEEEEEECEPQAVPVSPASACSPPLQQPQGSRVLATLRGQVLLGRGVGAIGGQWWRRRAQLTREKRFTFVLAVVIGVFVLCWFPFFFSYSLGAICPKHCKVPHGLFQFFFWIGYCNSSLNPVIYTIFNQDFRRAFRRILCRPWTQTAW

[9] = target: MAP/microtubule affinity-regulating kinase 4 (Homo sapiens) (UniProt Q96L34); experiment: Inhibition of MARK4(h) at 10.0 µM in the Eurofins Kinase panel
[10] = target: Dual specificity protein kinase CLK1 (Homo sapiens) (UniProt P49759); experiment: Inhibition of CLK1(h) at 10.0 µM in the Eurofins Kinase panel
[11] = target: Leucine-rich repeat serine/threonine-protein kinase 2 (Homo sapiens) (UniProt Q5S007); experiment: Inhibition of LRRK2(h) at 10.0 µM in the Eurofins Kinase panel
[12] = target: Mu-type opioid receptor (Homo sapiens) (UniProt P35372)
[13] = target: Serine/threonine-protein kinase N2 (Homo sapiens) (UniProt Q16513); experiment: Inhibition of PRK2(h) at 10.0 µM in the Eurofins Kinase panel
[14] = target: Serine/threonine-protein kinase 16 (Homo sapiens) (UniProt O75716); experiment: Inhibition of STK16(h) at 10.0 µM in the Eurofins Kinase panel
[15] = target: Ephrin type-B receptor 1 (Homo sapiens) (UniProt P54762); experiment: Inhibition of EphB1(h) at 10.0 µM in the Eurofins Kinase panel
[16] = target: CDK17/Cyclin-Y (Homo sapiens) (UniProt Q00537+Q8ND76); experiment: Inhibition of CDK17/cyclinY(h) at 10.0 µM in the Eurofins Kinase panel; type: protein-complex assay
[17] = target: Myosin-IIIb (Homo sapiens) (UniProt Q8WXR4); experiment: Inhibition of MYO3B(h) at 10.0 µM in the Eurofins Kinase panel
[18] = target: Tyrosine-protein kinase JAK3 (Homo sapiens) (UniProt P52333); experiment: Inhibition of JAK3(h) at 10.0 µM in the Eurofins Kinase panel
[19] = target: LIM domain kinase 2 (Homo sapiens) (UniProt P53671); experiment: Inhibition of LIMK2(h) at 10.0 µM in the Eurofins Kinase panel
[20] = target: CDK9/cyclin T1 (Homo sapiens) (UniProt O60563+P50750); experiment: Inhibition of CDK9/cyclin T1(h) at 10.0 µM in the Eurofins Kinase panel; type: protein-complex assay
[21] = target: Protein kinase C delta type (Homo sapiens) (UniProt Q05655); experiment: Inhibition of PKCdelta(h) at 10.0 µM in the Eurofins Kinase panel
[22] = target: Macrophage-stimulating protein receptor (Homo sapiens) (UniProt Q04912); experiment: Inhibition of Ron(h) at 10.0 µM in the Eurofins Kinase panel
[23] = target: Misshapen-like kinase 1 (Homo sapiens) (UniProt Q8N4C8); experiment: Inhibition of MINK(h) at 10.0 µM in the Eurofins Kinase panel
[24] = target: Serine/threonine-protein kinase D3 (Homo sapiens) (UniProt O94806); experiment: Inhibition of PKD3(h) at 10.0 µM in the Eurofins Kinase panel
[25] = target: Cyclin-dependent kinase 2/cyclin E1 (Homo sapiens) (UniProt P24864+P24941); experiment: Inhibition of CDK2/cyclinE(h) at 10.0 µM in the Eurofins Kinase panel; type: protein-complex assay
[26] = target: Tyrosine-protein kinase FRK (Homo sapiens) (UniProt P42685); experiment: Inhibition of PTK5(h) at 10.0 µM in the Eurofins Kinase panel

Chain of Mu-type opioid receptor (Homo sapiens) (P35372 whole entry): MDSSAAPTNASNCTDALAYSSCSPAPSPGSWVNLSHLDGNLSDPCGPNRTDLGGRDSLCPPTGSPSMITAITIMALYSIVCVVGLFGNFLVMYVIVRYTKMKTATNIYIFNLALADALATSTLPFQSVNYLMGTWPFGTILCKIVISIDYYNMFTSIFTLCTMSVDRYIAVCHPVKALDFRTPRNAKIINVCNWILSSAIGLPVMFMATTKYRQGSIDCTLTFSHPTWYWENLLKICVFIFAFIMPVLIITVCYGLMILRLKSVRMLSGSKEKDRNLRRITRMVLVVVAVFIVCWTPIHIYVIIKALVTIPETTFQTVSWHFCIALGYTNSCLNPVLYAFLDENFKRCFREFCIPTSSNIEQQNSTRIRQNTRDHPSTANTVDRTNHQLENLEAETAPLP
Chain of 5-hydroxytryptamine receptor 2A (Homo sapiens) (P28223 whole entry): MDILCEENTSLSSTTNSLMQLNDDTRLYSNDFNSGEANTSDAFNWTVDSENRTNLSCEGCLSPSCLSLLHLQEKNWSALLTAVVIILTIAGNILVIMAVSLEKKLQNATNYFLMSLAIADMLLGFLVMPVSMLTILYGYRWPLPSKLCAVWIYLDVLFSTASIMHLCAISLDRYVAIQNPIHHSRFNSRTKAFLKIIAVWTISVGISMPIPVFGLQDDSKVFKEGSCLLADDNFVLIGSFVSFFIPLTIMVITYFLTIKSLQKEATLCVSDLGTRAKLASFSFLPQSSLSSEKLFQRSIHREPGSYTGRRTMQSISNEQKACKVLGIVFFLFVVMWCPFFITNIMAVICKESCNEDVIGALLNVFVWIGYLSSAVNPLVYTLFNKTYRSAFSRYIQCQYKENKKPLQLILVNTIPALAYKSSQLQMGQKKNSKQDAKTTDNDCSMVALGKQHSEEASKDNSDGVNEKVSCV
Chain of Leucine-rich repeat serine/threonine-protein kinase 2 (Homo sapiens) (Q5S007 whole entry): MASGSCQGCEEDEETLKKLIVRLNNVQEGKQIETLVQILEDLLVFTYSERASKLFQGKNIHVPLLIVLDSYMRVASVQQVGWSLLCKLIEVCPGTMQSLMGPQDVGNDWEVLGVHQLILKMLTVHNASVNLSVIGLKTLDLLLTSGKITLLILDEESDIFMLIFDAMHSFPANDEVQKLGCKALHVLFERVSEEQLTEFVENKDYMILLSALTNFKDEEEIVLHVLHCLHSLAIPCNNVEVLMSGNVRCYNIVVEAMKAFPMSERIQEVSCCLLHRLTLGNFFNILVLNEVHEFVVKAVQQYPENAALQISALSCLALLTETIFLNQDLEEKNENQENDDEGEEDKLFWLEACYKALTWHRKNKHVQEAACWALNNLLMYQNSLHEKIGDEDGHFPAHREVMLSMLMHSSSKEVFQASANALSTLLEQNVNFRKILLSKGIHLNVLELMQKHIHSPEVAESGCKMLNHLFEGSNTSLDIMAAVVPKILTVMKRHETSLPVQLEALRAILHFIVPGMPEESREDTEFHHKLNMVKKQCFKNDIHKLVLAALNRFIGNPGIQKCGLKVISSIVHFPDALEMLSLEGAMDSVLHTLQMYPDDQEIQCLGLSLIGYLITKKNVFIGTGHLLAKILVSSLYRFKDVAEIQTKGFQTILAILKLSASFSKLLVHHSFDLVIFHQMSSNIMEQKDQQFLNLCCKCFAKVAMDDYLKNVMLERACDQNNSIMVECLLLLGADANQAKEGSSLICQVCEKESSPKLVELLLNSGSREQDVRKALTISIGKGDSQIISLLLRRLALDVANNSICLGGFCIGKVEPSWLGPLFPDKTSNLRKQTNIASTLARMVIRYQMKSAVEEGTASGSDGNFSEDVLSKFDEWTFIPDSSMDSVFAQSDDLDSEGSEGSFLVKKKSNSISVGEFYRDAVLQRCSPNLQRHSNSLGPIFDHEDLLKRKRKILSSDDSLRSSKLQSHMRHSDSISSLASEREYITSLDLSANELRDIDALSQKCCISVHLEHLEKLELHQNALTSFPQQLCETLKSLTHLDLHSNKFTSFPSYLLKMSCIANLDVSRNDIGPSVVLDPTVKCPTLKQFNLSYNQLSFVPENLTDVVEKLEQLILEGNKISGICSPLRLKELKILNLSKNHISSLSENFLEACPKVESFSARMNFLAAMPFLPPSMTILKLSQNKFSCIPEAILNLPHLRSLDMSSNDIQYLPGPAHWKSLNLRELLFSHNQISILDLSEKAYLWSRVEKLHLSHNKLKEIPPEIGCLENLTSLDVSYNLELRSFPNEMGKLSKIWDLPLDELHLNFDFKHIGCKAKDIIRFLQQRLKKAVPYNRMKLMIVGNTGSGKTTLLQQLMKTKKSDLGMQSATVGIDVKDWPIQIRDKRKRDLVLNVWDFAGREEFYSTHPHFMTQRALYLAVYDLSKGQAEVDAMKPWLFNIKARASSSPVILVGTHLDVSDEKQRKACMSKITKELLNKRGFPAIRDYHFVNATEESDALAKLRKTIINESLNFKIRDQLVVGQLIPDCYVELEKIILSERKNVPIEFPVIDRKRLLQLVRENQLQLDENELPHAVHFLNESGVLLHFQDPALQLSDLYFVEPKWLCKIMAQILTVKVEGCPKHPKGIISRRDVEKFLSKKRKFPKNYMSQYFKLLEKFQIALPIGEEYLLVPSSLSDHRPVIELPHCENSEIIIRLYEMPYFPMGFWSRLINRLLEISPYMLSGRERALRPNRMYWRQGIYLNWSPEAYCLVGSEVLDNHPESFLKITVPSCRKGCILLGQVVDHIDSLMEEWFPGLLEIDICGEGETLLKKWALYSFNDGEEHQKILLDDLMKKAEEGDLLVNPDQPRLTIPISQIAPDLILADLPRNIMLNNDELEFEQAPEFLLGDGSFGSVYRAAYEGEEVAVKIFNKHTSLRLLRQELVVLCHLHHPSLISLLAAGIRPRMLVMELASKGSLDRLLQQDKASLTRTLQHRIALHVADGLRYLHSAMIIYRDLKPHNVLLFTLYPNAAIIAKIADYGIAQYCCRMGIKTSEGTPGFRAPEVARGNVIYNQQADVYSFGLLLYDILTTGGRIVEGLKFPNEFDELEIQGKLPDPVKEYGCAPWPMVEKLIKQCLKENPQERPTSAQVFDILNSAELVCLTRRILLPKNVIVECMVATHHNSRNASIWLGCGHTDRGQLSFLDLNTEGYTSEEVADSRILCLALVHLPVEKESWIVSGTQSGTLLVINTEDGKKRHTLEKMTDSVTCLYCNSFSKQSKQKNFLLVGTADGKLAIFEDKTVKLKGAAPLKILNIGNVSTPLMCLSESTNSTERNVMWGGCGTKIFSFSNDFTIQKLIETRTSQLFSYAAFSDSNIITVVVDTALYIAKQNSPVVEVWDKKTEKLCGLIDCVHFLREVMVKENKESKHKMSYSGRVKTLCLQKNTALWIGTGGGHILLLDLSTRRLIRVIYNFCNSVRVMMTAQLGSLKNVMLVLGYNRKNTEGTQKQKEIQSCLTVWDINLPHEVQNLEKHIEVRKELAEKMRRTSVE
Chain of Serine/threonine-protein kinase 16 (Homo sapiens) (O75716 whole entry): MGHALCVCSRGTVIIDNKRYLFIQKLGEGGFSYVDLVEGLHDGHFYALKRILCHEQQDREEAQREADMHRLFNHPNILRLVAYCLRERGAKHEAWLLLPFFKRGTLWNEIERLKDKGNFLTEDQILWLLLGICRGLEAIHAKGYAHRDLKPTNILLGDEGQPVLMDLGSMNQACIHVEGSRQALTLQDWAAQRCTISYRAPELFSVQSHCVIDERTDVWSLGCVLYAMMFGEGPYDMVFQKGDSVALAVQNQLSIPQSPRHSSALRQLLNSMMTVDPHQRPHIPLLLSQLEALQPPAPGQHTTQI
Chain of D(2) dopamine receptor (Homo sapiens) (P14416 whole entry): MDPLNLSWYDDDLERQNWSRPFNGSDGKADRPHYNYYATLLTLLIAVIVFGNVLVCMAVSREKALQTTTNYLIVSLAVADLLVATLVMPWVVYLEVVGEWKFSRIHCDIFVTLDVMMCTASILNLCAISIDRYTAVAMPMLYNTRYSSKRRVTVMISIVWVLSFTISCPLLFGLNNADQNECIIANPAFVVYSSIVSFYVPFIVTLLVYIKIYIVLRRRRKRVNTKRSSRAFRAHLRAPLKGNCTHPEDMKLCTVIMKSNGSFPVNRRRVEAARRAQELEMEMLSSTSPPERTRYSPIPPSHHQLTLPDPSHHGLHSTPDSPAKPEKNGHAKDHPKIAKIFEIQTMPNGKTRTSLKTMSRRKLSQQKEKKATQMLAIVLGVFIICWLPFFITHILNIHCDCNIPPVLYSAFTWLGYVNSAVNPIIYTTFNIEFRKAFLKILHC
Chain of Serine/threonine-protein kinase D3 (Homo sapiens) (O94806 whole entry): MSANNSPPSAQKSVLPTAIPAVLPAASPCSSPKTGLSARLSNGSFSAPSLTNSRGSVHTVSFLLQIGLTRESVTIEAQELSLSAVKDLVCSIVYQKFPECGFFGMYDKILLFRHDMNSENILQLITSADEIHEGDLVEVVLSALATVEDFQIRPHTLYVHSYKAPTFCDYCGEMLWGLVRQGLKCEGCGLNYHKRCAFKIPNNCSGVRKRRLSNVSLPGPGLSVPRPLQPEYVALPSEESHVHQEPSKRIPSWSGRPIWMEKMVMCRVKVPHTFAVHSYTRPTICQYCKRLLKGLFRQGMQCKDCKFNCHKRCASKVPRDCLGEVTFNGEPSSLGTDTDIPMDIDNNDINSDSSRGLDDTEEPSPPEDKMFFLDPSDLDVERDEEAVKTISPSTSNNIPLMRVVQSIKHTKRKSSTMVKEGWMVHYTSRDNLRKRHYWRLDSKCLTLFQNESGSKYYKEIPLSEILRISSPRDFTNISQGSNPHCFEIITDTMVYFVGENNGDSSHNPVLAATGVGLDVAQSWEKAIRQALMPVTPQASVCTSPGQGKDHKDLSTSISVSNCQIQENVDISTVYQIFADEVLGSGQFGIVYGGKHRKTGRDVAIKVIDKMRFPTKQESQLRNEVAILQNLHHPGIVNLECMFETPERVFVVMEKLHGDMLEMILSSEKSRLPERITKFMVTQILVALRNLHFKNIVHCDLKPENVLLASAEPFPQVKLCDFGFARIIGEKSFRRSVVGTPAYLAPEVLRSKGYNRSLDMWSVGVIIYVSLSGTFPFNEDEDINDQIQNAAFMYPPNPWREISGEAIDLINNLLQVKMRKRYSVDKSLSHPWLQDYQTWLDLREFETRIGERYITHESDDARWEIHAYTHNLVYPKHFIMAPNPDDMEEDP

## O=c1n(Cc2cncn2-c2cccc(Cl)c2)nc(-c2ccc(Cl)cc2)n1C[C@H](O)C(F)(F)F
[1]
  inhibition: -1.12%
[2]
  inhibition: -8%
[3]
  inhibition: 4.89%
[4]
  inhibition: -2.02%
[5]
  inhibition: 16%
[6]
  inhibition: -2.39%
[7]
  inhibition: 1.85%
[8]
  inhibition: 0.1%
[9]
  inhibition: 2.56%
[10]
  inhibition: 7.05%
[11]
  inhibition: 10.3%
[12]
  inhibition: 6.13%
[13]
  inhibition: 27.4%
[14]
  inhibition: -0.13%
[15]
  inhibition: 9.79%
[16]
  inhibition: 3.78%
[17]
  inhibition: 6.86%
[18]
  inhibition: 2.81%
[19]
  inhibition: 1.5%
[20]
  inhibition: -1.79%
[21]
  inhibition: -4.61%
[22]
  inhibition: -7.87%
[23]
  inhibition: 5.6%
[24]
  inhibition: 1.68%
[25]
  inhibition: 3.43%
[26]
  inhibition: 0.3%

## C[C@H](O)c1nc(Cn2nc(-c3ccc(Cl)cc3)n(C[C@H](O)C(F)(F)F)c2=O)nn1-c1cccc(Cl)c1 [PECAVAPTAN]
[1]
  inhibition: 1.79%
[2]
  inhibition: 26%
[3]
  inhibition: -2.97%
[4]
  inhibition: 0.62%
[5]
  inhibition: 14%
[6]
  inhibition: 2.81%
[7]
  inhibition: -1.51%
[8]
  inhibition: 16.1%
[9]
  inhibition: 2.7%
[10]
  inhibition: 7.77%
[11]
  inhibition: 5.14%
[12]
  inhibition: 14.4%
[13]
  inhibition: 7.5%
[14]
  inhibition: 4.07%
[15]
  inhibition: 4.68%
[16]
  inhibition: 5.47%
[17]
  inhibition: 2.49%
[18]
  inhibition: -1.87%
[19]
  inhibition: 0.25%
[20]
  inhibition: -3.05%
[21]
  inhibition: 2.12%
[22]
  inhibition: -9.41%
[23]
  inhibition: 5.2%
[24]
  inhibition: -0.82%
[25]
  inhibition: -0.04%
[26]
  inhibition: 0.28%
